Source: the NIST ThermoML archive (doi:10.1021/acs.jced.5b00798)
Numbers after ± are expanded uncertainties.

Assays:
[1] = xn = mol fraction of the nth substance listed; conditions: for surface tension liquid-gas: surface light scattering; for kinematic viscosity: 101 kPa, Liquid, Surface laser light scattering (SLLS)
[2] = for surface tension liquid-gas: surface light scattering; for kinematic viscosity: 101.33 kPa, Liquid, Surface laser light scattering (SLLS)

C=C(F)C(F)(F)F [2,3,3,3-tetrafluoro-1-propene] + FCF
[1]
Conditions | kinematic viscosity [m2/s] | surface tension liquid-gas [mN/m]
293.15 K, x2 = 0.7945 | 1.28e-07 ± 8.7e-09 | 7.04 ± 0.11
293.16 K, x2 = 0.5193 | 1.31e-07 ± 8.8e-09 | 6.55 ± 0.1
293.21 K, x2 = 0.6988 | 1.28e-07 ± 8.7e-09 | 6.9 ± 0.1
303.14 K, x2 = 0.7945 | 1.18e-07 ± 8.7e-09 | 5.57 ± 0.08
303.16 K, x2 = 0.5193 | 1.2e-07 ± 8.7e-09 | 5.29 ± 0.08
303.2 K, x2 = 0.6988 | 1.19e-07 ± 8.7e-09 | 5.49 ± 0.08
313.14 K, x2 = 0.5193 | 1.09e-07 ± 8.6e-09 | 4.1 ± 0.06
313.21 K, x2 = 0.6988 | 1.09e-07 ± 8.6e-09 | 4.1 ± 0.06
313.26 K, x2 = 0.7945 | 1.08e-07 ± 8.6e-09 | 4.14 ± 0.06
323.17 K, x2 = 0.5193 | 1.01e-07 ± 8.5e-09 | 2.96 ± 0.04
323.19 K, x2 = 0.6988 | 9.91e-08 ± 8.5e-09 | 2.82 ± 0.04
323.2 K, x2 = 0.7945 | 9.82e-08 ± 8.5e-09 | 2.83 ± 0.04
333.14 K, x2 = 0.5193 | 9.15e-08 ± 8.5e-09 | 1.91 ± 0.03
333.21 K, x2 = 0.6988 | 8.98e-08 ± 8.4e-09 | 1.66 ± 0.03
333.21 K, x2 = 0.7945 | 8.85e-08 ± 8.4e-09 | 1.62 ± 0.03
343.14 K, x2 = 0.5193 | 8.18e-08 ± 9.1e-09 | 0.97 ± 0.02
343.16 K, x2 = 0.6988 | 7.93e-08 ± 9e-09 | 0.66 ± 0.01
343.18 K, x2 = 0.7945 | 7.71e-08 ± 8.9e-09 | 0.59 ± 0.01

FCF [difluoromethane]
[2]
Conditions | kinematic viscosity [m2/s] | surface tension liquid-gas [mN/m]
293.15 K | 1.29e-07 ± 8.7e-09 | 7.4 ± 0.11
303.15 K | 1.17e-07 ± 8.7e-09 | 5.94 ± 0.09
313.07 K | 1.08e-07 ± 8.6e-09 | 4.35 ± 0.07
323.15 K | 9.98e-08 ± 8.5e-09 | 2.96 ± 0.05
333.14 K | 9.3e-08 ± 8.5e-09 | 1.67 ± 0.03
343.16 K | 7.95e-08 ± 8.4e-09 | 0.57 ± 0.01
348.18 K | 7.5e-08 ± 8.8e-09 | 0.14 ± 0.01

F/C=C/C(F)(F)F [trans-1,3,3,3-tetrafluoropropene] + FCF
[1]
Conditions | kinematic viscosity, x2 = 0.2985 [m2/s] | kinematic viscosity, x2 = 0.5697 [m2/s] | kinematic viscosity, x2 = 0.7501 [m2/s] | surface tension liquid-gas, x2 = 0.2985 [mN/m] | surface tension liquid-gas, x2 = 0.5697 [mN/m] | surface tension liquid-gas, x2 = 0.7501 [mN/m]
293.14 K | – | 1.47e-07 ± 8.9e-09 | 1.37e-07 ± 8.8e-09 | – | – | –
293.16 K | 1.61e-07 ± 9e-09 | – | – | 8.46 ± 0.13 | 8.02 ± 0.12 | 7.74 ± 0.12
303.16 K | – | 1.34e-07 ± 8.8e-09 | 1.28e-07 ± 8.7e-09 | – | – | –
303.17 K | 1.43e-07 ± 8.9e-09 | – | – | 7.17 ± 0.11 | 6.63 ± 0.1 | 6.3 ± 0.09
313.12 K | – | 1.22e-07 ± 8.7e-09 | 1.14e-07 ± 8.6e-09 | – | – | –
313.13 K | 1.32e-07 ± 8.8e-09 | – | – | 5.93 ± 0.09 | 5.34 ± 0.08 | 4.91 ± 0.07
323.13 K | 1.23e-07 ± 8.7e-09 | – | – | 4.75 ± 0.07 | 4.15 ± 0.06 | 3.62 ± 0.05
323.14 K | – | 1.13e-07 ± 8.6e-09 | 1.04e-07 ± 8.6e-09 | – | – | –
333.14 K | – | 1.03e-07 ± 8.5e-09 | 9.75e-08 ± 8.5e-09 | – | – | –
333.16 K | 1.11e-07 ± 8.6e-09 | – | – | 3.62 ± 0.05 | 2.89 ± 0.04 | 2.41 ± 0.04
343.11 K | – | 9.31e-08 ± 9.5e-09 | 8.96e-08 ± 9.4e-09 | – | – | –
343.12 K | 1.02e-07 ± 9.9e-09 | – | – | 2.54 ± 0.04 | 1.83 ± 0.03 | 1.32 ± 0.02
348.17 K | 9.63e-08 ± 9.7e-09 | – | – | 2.06 ± 0.03 | 1.34 ± 0.02 | 0.83 ± 0.01
348.19 K | – | 8.74e-08 ± 9.3e-09 | 8.58e-08 ± 9.2e-09 | – | – | –
